Reference: ChEMBL document CHEMBL5512661, “Design, synthesis, and biological evaluation of 3-phenyl substituted pyridine derivatives as potential dual inhibitors of XOR and URAT1” (Eur J Med Chem, 2024)
Calls of active or inactive are those of the source. No cut-off for these calls is given here.

Columns and labels:
[1] = molecular target: Xanthine dehydrogenase/oxidase (Homo sapiens, UniProt P47989); experiment: Inhibition of XOR (unknown origin) using xanthine as substrate measured for 10 mins by spectrophotometry
Chain of Xanthine dehydrogenase/oxidase (P47989 whole entry): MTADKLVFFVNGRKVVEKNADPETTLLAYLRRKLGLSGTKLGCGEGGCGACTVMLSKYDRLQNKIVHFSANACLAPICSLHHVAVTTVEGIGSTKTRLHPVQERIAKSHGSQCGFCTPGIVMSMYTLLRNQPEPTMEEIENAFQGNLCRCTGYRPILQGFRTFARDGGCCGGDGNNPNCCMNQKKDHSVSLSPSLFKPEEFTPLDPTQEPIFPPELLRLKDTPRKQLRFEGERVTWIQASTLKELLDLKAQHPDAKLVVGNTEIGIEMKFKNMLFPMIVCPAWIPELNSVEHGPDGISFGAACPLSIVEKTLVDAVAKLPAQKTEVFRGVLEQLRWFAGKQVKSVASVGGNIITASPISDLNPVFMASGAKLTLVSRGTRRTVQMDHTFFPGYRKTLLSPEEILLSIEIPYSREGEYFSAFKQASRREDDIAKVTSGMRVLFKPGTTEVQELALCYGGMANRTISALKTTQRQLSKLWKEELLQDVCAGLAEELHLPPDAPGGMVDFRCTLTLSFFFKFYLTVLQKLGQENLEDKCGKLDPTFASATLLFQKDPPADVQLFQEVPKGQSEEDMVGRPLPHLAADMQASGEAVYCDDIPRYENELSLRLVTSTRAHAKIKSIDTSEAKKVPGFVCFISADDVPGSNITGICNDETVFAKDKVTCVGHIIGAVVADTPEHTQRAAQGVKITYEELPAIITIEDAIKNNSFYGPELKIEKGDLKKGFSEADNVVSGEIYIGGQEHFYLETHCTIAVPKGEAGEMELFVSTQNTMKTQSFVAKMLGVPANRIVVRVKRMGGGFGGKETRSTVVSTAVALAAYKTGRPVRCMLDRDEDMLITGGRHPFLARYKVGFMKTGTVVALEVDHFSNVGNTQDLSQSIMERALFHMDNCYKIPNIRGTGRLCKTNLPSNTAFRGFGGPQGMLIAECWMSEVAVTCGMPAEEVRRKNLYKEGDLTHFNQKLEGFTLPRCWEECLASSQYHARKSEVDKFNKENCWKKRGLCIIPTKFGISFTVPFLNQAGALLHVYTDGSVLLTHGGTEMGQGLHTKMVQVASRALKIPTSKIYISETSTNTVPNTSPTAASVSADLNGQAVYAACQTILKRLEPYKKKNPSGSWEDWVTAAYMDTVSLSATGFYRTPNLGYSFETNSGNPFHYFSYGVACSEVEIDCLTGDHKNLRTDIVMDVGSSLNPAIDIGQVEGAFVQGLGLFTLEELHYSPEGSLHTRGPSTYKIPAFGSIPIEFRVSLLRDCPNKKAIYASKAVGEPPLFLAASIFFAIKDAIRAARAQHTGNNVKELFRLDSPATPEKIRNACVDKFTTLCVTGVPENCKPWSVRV

[2] = molecular target: T1, Solute carrier family 22 member 12 (Homo sapiens, UniProt Q96S37); experiment: Inhibition of human URAT1 expressed in HEK293T cells using 6-carboxylic fluorescein substrate by fluorescence assay; type: cell-based
T1 sequence (Q96S37 whole entry): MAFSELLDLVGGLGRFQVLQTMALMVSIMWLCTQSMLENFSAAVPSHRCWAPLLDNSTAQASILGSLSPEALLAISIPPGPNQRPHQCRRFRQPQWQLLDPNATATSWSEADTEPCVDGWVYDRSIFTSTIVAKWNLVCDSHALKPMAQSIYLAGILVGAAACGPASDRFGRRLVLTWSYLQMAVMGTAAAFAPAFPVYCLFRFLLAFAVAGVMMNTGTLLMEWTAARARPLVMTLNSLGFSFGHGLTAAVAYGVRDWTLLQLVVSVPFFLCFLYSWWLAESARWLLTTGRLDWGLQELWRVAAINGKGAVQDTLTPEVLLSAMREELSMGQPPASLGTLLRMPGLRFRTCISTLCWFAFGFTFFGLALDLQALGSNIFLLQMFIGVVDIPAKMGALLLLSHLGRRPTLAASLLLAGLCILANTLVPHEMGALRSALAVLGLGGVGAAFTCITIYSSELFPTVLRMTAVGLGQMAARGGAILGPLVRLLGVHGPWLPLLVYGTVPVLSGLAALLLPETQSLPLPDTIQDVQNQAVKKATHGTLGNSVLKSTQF

Mus musculus [3] = experiment: Hypouricemic effect in potassium oxonate/hypoxanthine-induced acute hyperuricemia ICR mouse model assessed as decrease in serum uric acid level at 5 mg/kg, gavage measured after 3 to 9 hrs of drug administration; type: functional, organism-based; details: time 3-9 hrs
URAT1 (SLC22A12) = molecular target: T2, URAT1 (SLC22A12) (Homo sapiens, UniProt Q96S37); experiment: Inhibition of human URAT1 expressed in HEK293T cells using 6-carboxylic fluorescein substrate at 100 uM by fluorescence assay relative to control; type: cell-based; details: HEK293T cells expressing human URAT1, probe 6-carboxylic fluorescein
T2 sequence (Q96S37 whole entry): T1 sequence (Q96S37 whole entry)

Mus musculus [4] = experiment: Hypouricemic effect in potassium oxonate/hypoxanthine-induced acute hyperuricemia ICR mouse model assessed as decrease in serum uric acid level measured after 1 hr drug administration; type: functional, organism-based
[5] = molecular target: T1, Solute carrier family 22 member 12; experiment: Inhibition of human URAT1 expressed in HEK293T cells using 6-carboxylic fluorescein substrate at 1000 uM by fluorescence assay; type: cell-based

Row | Compound | IC50 [1] [µM] | IC50 [2] [µM] | other results
1 | Cc1ccc(Nc2cncc(-c3ccc(C(=O)O)c(O)c3)c2)cc1 | 0.004 | 43.6 | –
2 | O=C(O)c1ccc(-c2cncc(Nc3ccccc3)c2)cc1O | 0.026 | 33.4 | –
3 | CCc1oc2ccccc2c1C(=O)c1cc(Br)c(O)c(Br)c1 | – | – | Activity (Mus musculus [3]): Active
4 | O=C(O)c1ccc(-c2cncc(Nc3ccc(Cl)cc3)c2)cc1O | 0.013 | 57.8 | –
5 | Cc1ccc(Oc2cncc(-c3ccc(C(=O)O)c(O)c3)c2)cc1 | 0.035 | 106 | –
6 | CC(C)NC(=O)c1cncc(-c2ccc(F)c(C(=O)O)c2)c1 | > 100 | > 1000 | –
7 | Cc1ccc(Nc2cncc(-c3ccc(C(=O)O)c(O)c3)c2)cc1F | 0.03 | 30.6 | –
8 | CC(=O)c1ccc(-c2cncc(C(=O)NC(C)C)c2)cc1 | 6.4 | – | inhibition at 100 µM (URAT1 (SLC22A12)): 15.6%
9 | CC(C)(C)c1ccc(Oc2cncc(-c3ccc(C(=O)O)c(O)c3)c2)cc1 | 0.121 | 124 | Activity (Mus musculus [3]): Active; Activity (Mus musculus [4]): inactive
10 | Cc1nc(-c2ccc(OCC(C)C)c(C#N)c2)sc1C(=O)O [FEBUXOSTAT] | 0.008 | – | –
11 | Cc1nc(C)c(-c2csc(Nc3ccc(O)c(C(=O)O)c3)n2)s1 | 3.95 | – | inhibition at 100 µM (URAT1 (SLC22A12)): 35.5%
12 | O=C(O)c1ccc(-c2cncc(Oc3ccccc3)c2)cc1O | 0.036 | 86.7 | Activity (Mus musculus [3]): Active; Activity (Mus musculus [4]): inactive
13 | O=C(O)c1ccc(-c2cncc(Oc3ccc(Cl)cc3)c2)cc1O | 0.038 | 64.6 | –
14 | Cc1ccc(Nc2cncc(-c3ccc(C(=O)O)c(O)c3)c2)cc1Cl | 0.043 | 51.7 | –
15 | CC(C)NC(=O)c1cncc(-c2ccc(C(=O)O)c(O)c2)c1 | 0.037 | 547 | –
16 | CC(C)NC(=O)c1cncc(-c2cccc(C(=O)O)c2)c1 | > 100 | – | inhibition (INH) [5]: Not Active

Row | Compound | IC50 [1] [µM] | IC50 [2] [µM] | other results
17 | CC(C)NC(=O)c1cncc(-c2ccc(C(=O)O)cc2)c1 | 0.59 | – | inhibition (INH) [5]: Not Active
18 | O=C(O)c1ccc(-c2cncc(Oc3cccc(Cl)c3)c2)cc1O | 0.045 | 55.9 | –
19 | O=C(O)c1ccc(-c2cncc(Nc3ccc(Cl)c(Cl)c3)c2)cc1O | 0.019 | 80.7 | –
20 | Cc1cccc(Nc2cncc(-c3ccc(C(=O)O)c(O)c3)c2)c1 | 0.023 | 56.9 | –
21 | O=C(O)c1ccc(-c2cncc(Nc3ccc(F)cc3)c2)cc1O | 0.015 | 91.2 | –
22 | COc1ccc(Nc2cncc(-c3ccc(C(=O)O)c(O)c3)c2)cc1 | 0.016 | 58.3 | –
23 | O=C(O)c1ccc(-c2cncc(Nc3ccc(F)c(Cl)c3)c2)cc1O | 0.016 | 36.8 | –
24 | CC(C)NC(=O)c1cncc(-c2ccc(Cl)c(C(=O)O)c2)c1 | > 100 | > 1000 | –
25 | CC(C)NC(=O)c1cncc(-c2ccc(O)c(C(=O)O)c2)c1 | 80 | 221 | –
26 | CC(C)NC(=O)c1cncc(-c2ccc(C#N)cc2)c1 | 75.4 | – | inhibition (INH) [5]: Not Active
27 | CC(C)(C)c1ccc(Nc2cncc(-c3ccc(C(=O)O)c(O)c3)c2)cc1 | 0.041 | 70.3 | –
28 | Cc1cccc(Oc2cncc(-c3ccc(C(=O)O)c(O)c3)c2)c1 | 0.026 | 86.2 | –
29 | O=C(O)c1ccc(-c2cncc(Oc3ccc(F)cc3)c2)cc1O | 0.04 | 134 | –
30 | Cc1ccc(Nc2cncc(-c3ccc(C(=O)O)c(O)c3)c2)cc1C | 0.021 | 53.6 | –
31 | O=C(O)c1ccc(-c2cncc(Nc3cccc(Cl)c3)c2)cc1O | 0.006 | 12.9 | –
32 | CCc1ccc(Nc2cncc(-c3ccc(C(=O)O)c(O)c3)c2)cc1 | 0.026 | 31.5 | –
